Reference: patent publication US10376520B2, “Methods for the treatment of cardiovascular disorders” (Galapagos NV, priority 2015, dated 2019)

Test system: RA patients
Assay: [HDL] determination, Study 1 (RA patients, add-on to MTX)
Assay type: in vivo, human
Protocol: Double-blind, placebo-controlled add on study in subjects with moderately to severely active RA who have an inadequate response to methotrexate (MTX) (oral or parenteral).
595 subjects randomized to one of 6 dose regimens of Compound 1 (dosed as a [Compound 1:HCl:3H2O]) (3 dose levels administered either once or twice daily) or placebo on top of each subject's stable dose of MTX.
Compound 1 (dosed as a [Compound 1:HCl:3H2O]) is dosed for twelve weeks once daily (q.d.) (50 mg, 100 mg or 200 mg) or twice daily (b.i.d.) (25 mg, 50 mg or 100 mg); or placebo.
At Week 12, the subjects on placebo who have not achieved 20% improvement in swollen joint count (SJC66) and tender joint count (TJC68) are re-randomized automatically to receive Compound 1 (dosed as a [Compound 1:HCl:3H2O]) either at 100 mg q.d. or 50 mg b.i.d. doses in a blinded fashion; subjects on 50 mg q.d. who have not achieved 20% improvement in SJC66 and TJC68 will be assigned to 100 mg q.d. and subjects on 25 mg b.i.d. that have not achieved a 20% improvement in SJC66 and TJC68 will be assigned to 50 mg b.i.d. Subjects who switch treatment at week 12 are handled as if they discontinued at week 12 for the purpose of statistical analysis, whereas subjects in the other groups will maintain their randomized treatment until Week 24.
This assay relies on a homogeneous enzymatic colorimetric test. In the presence of magnesium ions, dextran sulfate selectively forms water-soluble complexes with LDL, VLDL and chylomicrons which are resistant to PEG-modified enzymes.
The cholesterol concentration of [HDL]-cholesterol is determined enzymatically by cholesterol esterase and cholesterol oxidase coupled with PEG to the amino groups (approx. 40%).
In the presence of peroxidase, the hydrogen peroxide generated reacts with 4-amino-antipyrine and Sodium N-(2-hydroxy-3-sulfopropyl)-3,5-dimethoxyaniline (HSDA) to form a purple-blue dye. The color intensity of this dye is directly proportional to the cholesterol concentration and is measured photometrically.
Human serum and plasma samples [HDL] determination was done on a Roche/Hitachi Cobas c 701/702 system which automatically calculate the analyte concentration of each sample. Samples containing precipitates are centrifuged before performing the assay.

[1] = 2 x 25 mg b.i.d. (N = 86), week 1
[2] = 2 x 25 mg b.i.d. (N = 86), week 2
[3] = 2 x 25 mg b.i.d. (N = 86), week 4
[4] = 2 x 25 mg b.i.d. (N = 86), week 8
[5] = 2 x 25 mg b.i.d. (N = 86), week 12
[6] = 2 x 50 mg b.i.d. (N = 85), week 1
[7] = 2 x 50 mg b.i.d. (N = 85), week 2
[8] = 2 x 50 mg b.i.d. (N = 85), week 4
[9] = 2 x 50 mg b.i.d. (N = 85), week 8

O=C(Nc1nc2cccc(-c3ccc(CN4CCS(=O)(=O)CC4)cc3)n2n1)C1CC1 [Compound 1, cyclopropanecarboxylic acid {5-[4-(1,1-dioxo-thiomorpholin-4-ylmethyl)-phenyl]-[1,2,4]triazolo[1,5-a]pyridin-2yl}-amide]
[HDL] Mean CFB - 12 weeks results (50 mg q.d. (N = 82), week 1): 0.02 mmol/L
[HDL] Mean percentage CFB - 12 weeks results (50 mg q.d. (N = 82), week 1): 2%
[HDL] Median CFB - 12 weeks results (50 mg q.d. (N = 82), week 1): 0.01 mmol/L
[HDL] Mean CFB - 12 weeks results (50 mg q.d. (N = 82), week 2): 0.08 mmol/L
[HDL] Mean percentage CFB - 12 weeks results (50 mg q.d. (N = 82), week 2): 5%
[HDL] Median CFB - 12 weeks results (50 mg q.d. (N = 82), week 2): 0.08 mmol/L
[HDL] Mean CFB - 12 weeks results (50 mg q.d. (N = 82), week 4): 0.06 mmol/L
[HDL] Mean percentage CFB - 12 weeks results (50 mg q.d. (N = 82), week 4): 5%
[HDL] Median CFB - 12 weeks results (50 mg q.d. (N = 82), week 4): 0.05 mmol/L
[HDL] Mean CFB - 12 weeks results (50 mg q.d. (N = 82), week 8): 0.06 mmol/L
[HDL] Mean percentage CFB - 12 weeks results (50 mg q.d. (N = 82), week 8): 6%
[HDL] Median CFB - 12 weeks results (50 mg q.d. (N = 82), week 8): 0.10 mmol/L
[HDL] Mean CFB - 12 weeks results (50 mg q.d. (N = 82), week 12): 0.06 mmol/L
[HDL] Mean percentage CFB - 12 weeks results (50 mg q.d. (N = 82), week 12): 7%
[HDL] Median CFB - 12 weeks results (50 mg q.d. (N = 82), week 12): 0.05 mmol/L
[HDL] Mean CFB - 12 weeks results (100 mg q.d. (N = 85), week 1): 0.05 mmol/L
[HDL] Mean percentage CFB - 12 weeks results (100 mg q.d. (N = 85), week 1): 5%
[HDL] Median CFB - 12 weeks results (100 mg q.d. (N = 85), week 1): 0.06 mmol/L
[HDL] Mean CFB - 12 weeks results (100 mg q.d. (N = 85), week 2): 0.07 mmol/L
[HDL] Mean percentage CFB - 12 weeks results (100 mg q.d. (N = 85), week 2): 7%
[HDL] Median CFB - 12 weeks results (100 mg q.d. (N = 85), week 2): 0.07 mmol/L
[HDL] Mean CFB - 12 weeks results (100 mg q.d. (N = 85), week 4): 0.11 mmol/L
[HDL] Mean percentage CFB - 12 weeks results (100 mg q.d. (N = 85), week 4): 9%
[HDL] Median CFB - 12 weeks results (100 mg q.d. (N = 85), week 4): 0.13 mmol/L
[HDL] Mean CFB - 12 weeks results (100 mg q.d. (N = 85), week 8): 0.09 mmol/L
[HDL] Mean percentage CFB - 12 weeks results (100 mg q.d. (N = 85), week 8): 8%
[HDL] Median CFB - 12 weeks results (100 mg q.d. (N = 85), week 8): 0.11 mmol/L
[HDL] Mean CFB - 12 weeks results (100 mg q.d. (N = 85), week 12): 0.10 mmol/L
[HDL] Mean percentage CFB - 12 weeks results (100 mg q.d. (N = 85), week 12): 8%
[HDL] Median CFB - 12 weeks results (100 mg q.d. (N = 85), week 12): 0.10 mmol/L
[HDL] Mean CFB - 12 weeks results (200 mg q.d. (N = 86), week 1): 0.11 mmol/L
[HDL] Mean percentage CFB - 12 weeks results (200 mg q.d. (N = 86), week 1): 9%
[HDL] Median CFB - 12 weeks results (200 mg q.d. (N = 86), week 1): 0.13 mmol/L
[HDL] Mean CFB - 12 weeks results (200 mg q.d. (N = 86), week 2): 0.20 mmol/L
[HDL] Mean percentage CFB - 12 weeks results (200 mg q.d. (N = 86), week 2): 17%
[HDL] Median CFB - 12 weeks results (200 mg q.d. (N = 86), week 2): 0.20 mmol/L
[HDL] Mean CFB - 12 weeks results (200 mg q.d. (N = 86), week 4): 0.24 mmol/L
[HDL] Mean percentage CFB - 12 weeks results (200 mg q.d. (N = 86), week 4): 20%
[HDL] Median CFB - 12 weeks results (200 mg q.d. (N = 86), week 4): 0.25 mmol/L
[HDL] Mean CFB - 12 weeks results (200 mg q.d. (N = 86), week 8): 0.29 mmol/L
[HDL] Mean percentage CFB - 12 weeks results (200 mg q.d. (N = 86), week 8): 22%
[HDL] Median CFB - 12 weeks results (200 mg q.d. (N = 86), week 8): 0.30 mmol/L
[HDL] Mean CFB - 12 weeks results (200 mg q.d. (N = 86), week 12): 0.27 mmol/L
[HDL] Mean percentage CFB - 12 weeks results (200 mg q.d. (N = 86), week 12): 21%
[HDL] Median CFB - 12 weeks results (200 mg q.d. (N = 86), week 12): 0.26 mmol/L
[HDL] Mean CFB - 12 weeks results [1]: 0.00 mmol/L
[HDL] Mean percentage CFB - 12 weeks results [1]: 0%
[HDL] Median CFB - 12 weeks results [1]: 0.00 mmol/L
[HDL] Mean CFB - 12 weeks results [2]: 0.04 mmol/L
[HDL] Mean percentage CFB - 12 weeks results [2]: 4%
[HDL] Median CFB - 12 weeks results [2]: 0.05 mmol/L
[HDL] Mean CFB - 12 weeks results [3]: 0.05 mmol/L
[HDL] Mean percentage CFB - 12 weeks results [3]: 4%
[HDL] Median CFB - 12 weeks results [3]: 0.05 mmol/L
[HDL] Mean CFB - 12 weeks results [4]: 0.06 mmol/L
[HDL] Mean percentage CFB - 12 weeks results [4]: 5%
[HDL] Median CFB - 12 weeks results [4]: 0.10 mmol/L
[HDL] Mean CFB - 12 weeks results [5]: 0.06 mmol/L
[HDL] Mean percentage CFB - 12 weeks results [5]: 6%
[HDL] Median CFB - 12 weeks results [5]: 0.05 mmol/L
[HDL] Mean CFB - 12 weeks results [6]: 0.03 mmol/L
[HDL] Mean percentage CFB - 12 weeks results [6]: 4%
[HDL] Median CFB - 12 weeks results [6]: 0.05 mmol/L
[HDL] Mean CFB - 12 weeks results [7]: 0.12 mmol/L
[HDL] Mean percentage CFB - 12 weeks results [7]: 10%
[HDL] Median CFB - 12 weeks results [7]: 0.10 mmol/L
[HDL] Mean CFB - 12 weeks results [8]: 0.13 mmol/L
[HDL] Mean percentage CFB - 12 weeks results [8]: 12%
[HDL] Median CFB - 12 weeks results [8]: 0.13 mmol/L
[HDL] Mean CFB - 12 weeks results [9]: 0.13 mmol/L
[HDL] Mean percentage CFB - 12 weeks results [9]: 11%
[HDL] Median CFB - 12 weeks results [9]: 0.14 mmol/L
